Data set [1] in a line: Stability testing: physical form (disproportionation) monitored by X-ray powder diffraction after storage in vials. It is filed as physicochemical. The following applies: physical form found by XRPD after storage in vials. The protocol: The binary mixtures and pharmaceutical compositions were stored in vials at 40°C/75%RH for 1 month or at 50° C 75% RH for 14 days. Disproportionation effect was monitored by X-ray powder diffraction pattern.
X-ray powder diffraction patterns were obtained by a PANalytical PW3040/60 X'Pert PRO diffractometer using CuKα radiation of 1,541874.
Lenalidomide hydrochloride and the all the excipients with respect to the composition were weighed into the glass vial. Gelatine capsule were added into the vials. The vials were then closed with the stopper and gently mixed to form a homogenous mixture. The vials were subjected to the stress conditions.
Lenalidomide hydrochloride in the form of monohydrate form VII and the all the excipients with respect to the composition were weighed into the glass vial. Gelatine capsule were added into the vials. Vials were then closed with the stopper and gently mixed to form a homogenous mixture. The vials were subjected to the stress conditions.
The capsules were stored in vials at 40°C/75%RH for 1 month. Physical stability of the samples was monitored by X-ray powder diffraction pattern. As evident from the results, the physical form remains the same, a disproportionation effect was not observed.

For data set [2] the following is noted: cited from earlier work.

Molecules are shown by their SMILES. Structures can show the parent of a compound that is named as a salt.

With `Nc1cccc2c1CN(C1CCC(=O)NC1=O)C2=O` (stereo not drawn) [API, Lenalidomid HCl·H2O], in data set [1], the “Stability testing 1 month at 40°C/75%RH” value is reported as “HCl salt”.

On to `Nc1cccc2c1CN(C1CCC(=O)NC1=O)C2=O` (stereo not drawn) [lenalidomide, (3-(4' aminoisoindoline-1'-one)-1-piperidine-2,6-dione)], for which the “dissociation constant pKa1” value in data set [2] (primary amine group) is 2.31. Besides, in data set [2] (secondary amine group), the pKa2 is given as 11.6.
